From patent US8802675B2, “Neuroprotective multifunctional compounds and pharmaceutical compositions comprising them” (priority 2009, dated 2014)
Where “and” joins values, the source holds several entries; their conditions need not be identical. Equal entries are not always repeated. Where two headings read alike, the source gives them in different places.

Key:
[1] = target: T1, rat brain cholinesterase (total ChE) (Rattus norvegicus, UniProt P37136); assay: Kinetics of irreversible cholinesterase inhibition (Kitz-Wilson); format: biochemical
T1 construct: rows headed: Ki (dissociation constant for EI); other: rat brain total ChE; mean of 3-4 experiments; k+2 (carbamylation rate constant); other: from ki; rate of carba
T1 sequence (P37136 32-614): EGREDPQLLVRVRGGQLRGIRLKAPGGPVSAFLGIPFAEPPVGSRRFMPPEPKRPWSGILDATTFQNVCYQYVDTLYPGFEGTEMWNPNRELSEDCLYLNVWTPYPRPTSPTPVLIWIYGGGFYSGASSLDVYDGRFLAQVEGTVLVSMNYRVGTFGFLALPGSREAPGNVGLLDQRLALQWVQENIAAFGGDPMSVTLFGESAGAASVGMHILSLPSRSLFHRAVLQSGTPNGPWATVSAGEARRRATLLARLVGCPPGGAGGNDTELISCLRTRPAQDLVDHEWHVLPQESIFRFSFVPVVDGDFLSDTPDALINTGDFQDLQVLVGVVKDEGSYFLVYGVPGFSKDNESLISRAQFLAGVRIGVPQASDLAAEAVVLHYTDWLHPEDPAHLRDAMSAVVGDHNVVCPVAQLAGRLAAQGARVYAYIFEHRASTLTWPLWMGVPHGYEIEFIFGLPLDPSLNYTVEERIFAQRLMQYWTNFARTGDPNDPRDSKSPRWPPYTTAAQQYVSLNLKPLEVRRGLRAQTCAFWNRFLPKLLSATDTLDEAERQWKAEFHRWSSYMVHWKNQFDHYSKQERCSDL
Protocol: To determine kinetic constants of irreversible inhibition, cholinesterase from rat brain homogenates was incubated with the multifunctional compounds of the invention for designed time intervals in phosphate buffer pH 7.4.
The residual cholinesterase activity was immediately measured with the Ellman's colorimetric method after addition of 5,5′-dithiobis(2-nitrobenzoic) acid and 1 mM acetylthiocholine iodide. The inhibition kinetics were assessed according to Kitz-Wilson equation:
[formula] wherein: E represents the enzyme; I represents the intact carbamate (inhibitor); EI is the initial reversible enzyme complex; E* is the carbamylated enzyme; Ki represents the dissociation constant for EI; k+2 is the carbamylation rate constant and k+3 is the decarbamylation rate constant; kapp is the pseudo-first-order inhibition rate constant; ki, the second-order rate inhibition constant, is approximated by k+2/Ki. Under experimental condition [I]>>[E0].
According to equation (2), the logarithm of the ratio of the residual cholinesterase activity (E) and the initial cholinesterase activity (E0) is plotted against the time of incubation. The slopes of the lines representing kapp were determined by linear regression.
The slopes of the lines represent the pseudo-first-order inhibition rate constant (kapp) determined from linear regression analysis. […] The carbamylation rate constant (k+2) was obtained from the y-intercept, and the dissociation constant ([…] was obtained from the slope of the line multiplied by k+2 as described in Materials and Methods.
From these lines, the values of kapp were calculated based on Equation (2) of the Kitz-Wilson equations (see Material and Methods). […] The carbamylation rate constant k+2 is a measure of inactivation of ChE.

rat brain MAO-B = target: T2, rat brain MAO-B (Rattus norvegicus, UniProt P19643); assay: biochemical; details: IC50 MAO-B, rat brain homogenate in vitro; mean SEM, n=3 in triplicates
T2 construct: from tissue; host or cells: rat brain homogenate
T2 sequence (P19643 1-520): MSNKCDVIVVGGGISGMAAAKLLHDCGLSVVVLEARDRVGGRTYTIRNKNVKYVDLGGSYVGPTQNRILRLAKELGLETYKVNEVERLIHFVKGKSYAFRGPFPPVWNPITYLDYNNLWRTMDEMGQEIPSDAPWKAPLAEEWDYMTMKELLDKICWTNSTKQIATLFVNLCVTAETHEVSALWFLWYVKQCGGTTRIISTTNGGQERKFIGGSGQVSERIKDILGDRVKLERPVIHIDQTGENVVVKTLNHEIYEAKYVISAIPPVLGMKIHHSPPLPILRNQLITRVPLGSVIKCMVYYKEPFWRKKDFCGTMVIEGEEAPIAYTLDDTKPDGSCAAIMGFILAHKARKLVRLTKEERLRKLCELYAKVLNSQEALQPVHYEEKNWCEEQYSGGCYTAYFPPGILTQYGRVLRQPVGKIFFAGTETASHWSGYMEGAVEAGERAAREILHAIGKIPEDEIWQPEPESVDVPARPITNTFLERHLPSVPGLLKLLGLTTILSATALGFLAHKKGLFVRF
Protocol: (§1) Rats were decapitated and the brains were quickly taken into a pre-weighted ice-cold sucrose buffer (10 mM Tris-HCl buffer, pH 7.4, containing 0.32 M sucrose), and their weights were measured. The brains were homogenized at 0-4° C. in 0.32 M sucrose (one part tissue to 20 parts sucrose) in a Teflon glass homogenizer. The resultant homogenates were used to determine MAO activity. Protein concentration was determined with Bradford reagent at 595 nm, using bovine serum albumin as a standard.
(§2) The activity of MAO-A and MAO-B were determined by the adapted method of Tipton & Youdim (Tipton et al. 1983). Briefly, the multifunctional compound tested was added to a suitable dilution of the enzyme preparation (70 μg MAO-B and 150 μg MAO-A) in 0.05 M phosphate buffer (pH 7.4). The mixture was incubated together with 0.05 μM 1-deprenyl, a specific inhibitor of MAO-B (for determination of MAO-A activity in the presence of the test compound) or 0.05 μM clorgyline a specific inhibitor of MAO-A (for determination of MAO-B activity). […] The reaction was stopped with 2M ice-cold citric acid, and the radioactive metabolites (5-hydroxytryptaldehyde and phenylacetaldehyde) were extracted by addition of 2 ml of ethylacetate/toluene (1:1 vol/vol). The radioactivity contained in the organic phase was determined by liquid-scintillation counting in cpm units.
(§3) MAO-A and MAO-B activities were determined in rat brain homogenate in vitro following incubation with varying concentrations of the test compounds.
(§4) The results are the mean SEM, n=3 in triplicates.

rat brain MAO-A = target: T3, rat brain MAO-A (Rattus norvegicus, UniProt P21396); assay: biochemical; details: IC50 MAO-A, rat brain homogenate in vitro; mean SEM, n=3 in triplicates
T3 construct: from tissue; host or cells: rat brain homogenate
T3 sequence (P21396 1-526): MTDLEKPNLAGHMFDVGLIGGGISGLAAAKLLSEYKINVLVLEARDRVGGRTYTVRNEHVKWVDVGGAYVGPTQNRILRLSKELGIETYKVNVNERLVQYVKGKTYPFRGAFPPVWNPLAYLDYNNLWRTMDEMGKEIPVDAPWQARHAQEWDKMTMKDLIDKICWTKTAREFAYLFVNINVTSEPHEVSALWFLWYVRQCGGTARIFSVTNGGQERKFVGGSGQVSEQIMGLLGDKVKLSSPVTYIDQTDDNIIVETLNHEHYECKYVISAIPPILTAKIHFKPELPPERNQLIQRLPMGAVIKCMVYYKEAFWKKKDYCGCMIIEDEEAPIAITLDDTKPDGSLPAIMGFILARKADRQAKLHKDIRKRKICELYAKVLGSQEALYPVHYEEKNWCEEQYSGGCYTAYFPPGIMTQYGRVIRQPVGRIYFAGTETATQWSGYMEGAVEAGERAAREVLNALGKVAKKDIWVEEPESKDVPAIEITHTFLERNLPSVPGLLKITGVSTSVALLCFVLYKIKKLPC
Protocol: as §1, §2, §3, §4

[2] = target: T4, butyrylcholinesterase (BuChE) (Rattus norvegicus, UniProt Q9JKC1); assay: Butyrylcholinesterase inhibition in rat brain homogenates (Ellman); format: biochemical; details: mean SEM, n=3 in triplicates
T4 construct: total cholinesterase (ChE) and butyrylcholinesterase (BuChE) activities in rat brain homogenates; from tissue; host or cells: brain homogenate (10% w/v) of adult Wistar rats
T4 sequence (Q9JKC1 24-597): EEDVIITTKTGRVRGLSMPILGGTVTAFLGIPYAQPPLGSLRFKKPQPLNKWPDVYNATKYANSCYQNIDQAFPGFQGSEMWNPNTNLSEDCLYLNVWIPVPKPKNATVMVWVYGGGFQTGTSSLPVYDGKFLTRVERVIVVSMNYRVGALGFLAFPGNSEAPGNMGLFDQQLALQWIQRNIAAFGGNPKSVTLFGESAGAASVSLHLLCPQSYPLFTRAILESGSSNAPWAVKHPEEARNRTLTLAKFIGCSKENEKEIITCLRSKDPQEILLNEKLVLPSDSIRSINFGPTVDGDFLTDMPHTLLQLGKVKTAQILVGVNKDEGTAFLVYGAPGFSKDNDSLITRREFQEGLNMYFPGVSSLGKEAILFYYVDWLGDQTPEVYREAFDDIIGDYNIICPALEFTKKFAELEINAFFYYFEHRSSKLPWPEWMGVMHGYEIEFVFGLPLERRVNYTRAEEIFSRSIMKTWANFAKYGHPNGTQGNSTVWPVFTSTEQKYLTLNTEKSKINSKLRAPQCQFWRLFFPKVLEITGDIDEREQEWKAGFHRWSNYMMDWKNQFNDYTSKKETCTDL
Protocol: (§5) Cholinesterase activity was determined in rat brain homogenate following incubation with varying concentrations of the multifunctional pro-chelators of the invention (also referred to herein as “carbamates”).
(§6) Ellman's colorimetric method was adapted for determination of total cholinesterase (ChE) and butyrylcholinesterase (BuChE) activities in rat brain homogenates. Brain tissue from adult Wistar rats was homogenized at 2% w/v (or 10% w/v, for BuChE) in 0.1 M sodium phosphate buffer, pH 7.4, with added NaCl 58.5 g/l and Triton X-100 0.05% v/v. Aliquots of homogenate (20 μl) were incubated with the test compounds for designed time intervals in phosphate buffer pH 7.4, before addition of 5,5′-dithiobis(2-nitrobenzoic) acid and either 1 mM acetylthiocholine iodide or 10 mM butyrylthiocholine iodide (Sigma, St. Louis, Mo.). The reaction was run at 37° C. in a final volume of […] in 96-well microplates and was followed at 412 nm for 5 min with a plate reader. In every experiment, cholinesterase-independent (nonspecific) substrate hydrolysis was determined by including one experimental group treated with tacrine 30 μM. Appropriate tissue and reagent blanks were also included. Reaction velocities were determined in three or four replicates per condition; these were averaged and expressed as percent activity relative to control (solvent), after subtracting the rate of nonspecific hydrolysis.
(§7) The results are the mean SEM, n=3 in triplicates. ND—not determined.

[3] = target: T5, total cholinesterase (ChE) (Rattus norvegicus, UniProt P37136); assay: Total cholinesterase inhibition in rat brain homogenates (Ellman); format: biochemical; details: read-out: percent inhibition Total ChE
T5 sequence (P37136 32-614): T1 sequence (P37136 32-614)
Protocol: as §5, §6, §7

[4] = tested on: rat brain cholinesterase (total ChE); details: cited from earlier work

C#CCN(C)Cc1ccc(OC(=O)N2CCCCC2)c2ncccc12 [Compound 6, 5-((methyl(propargyl)amino)methyl)quinolin-8-yl piperidine-1-carboxylate]
potency in inhibiting ChE relative to rivastigmine ([1]; from ki): as potent
kinact ([1]; pH 7.4, read-out: k+2 (carbamylation rate constant)): 0.00117 s⁻¹
kinact/KI ([1]; pH 7.4, read-out: ki (second-order rate inhibition constant, approximated by k+2/Ki)): 77.3 M⁻¹ s⁻¹
IC50 (rat brain MAO-B): 1860 nM
IC50 (rat brain MAO-A): 4.7 to 20 nM and 4.7 nM
IC50 [2]: 45700 ± 5940 nM

CCN(C)C(=O)Oc1cccc([C@H](C)N(C)C)c1 [Rivastigmine, (S)-N-ethyl-N-methyl-3-[1-(dimethylamino)ethyl]-phenyl carbamate]
inhibition at 1 µM [3]: 62%
k+2 (carbamylation rate constant) ([4]; Data from ref.): 0.25^b min^−1
ki (second-order rate inhibition constant) ([4]; Data from ref.): 4.54 × 10^3b M^−1 min^−1
k+2 (carbamylation rate constant) ([4]; Data from ref., listed as rivastigmine): 0.25 min⁻¹
Ki ([4]; rivastigmine, data from ref., read-out: Ki, affinity to total ChE): 55000 nM
